Experimental data as given in ChEMBL document CHEMBL1201862, “PubChem BioAssay data set” (2004).
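All cell lines were grown in 96-well plates and treated with compound for 48 hours. The concentration for 50% growth inhibition is given as GI50.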 Active and inactive are the calls of the source. Rule as the data show it: active = GI50 up to about 1.1 µM and inactive = higher.

Assays:
Assay in all cases: NCI anticancer screen, dose series, 48 h
[1] = tested on: EKVX
[2] = tested on: HOP-18
[3] = tested on: UACC-62
[4] = tested on: SF-539
[5] = tested on: ACHN
[6] = tested on: SF-295
[7] = tested on: 786-0
[8] = tested on: A498
[9] = tested on: A549
[10] = tested on: NCI-H522
[11] = tested on: SK-MEL-28
[12] = tested on: HCC 2998
[13] = tested on: OVCAR-4
[14] = tested on: OVCAR-5
[15] = tested on: HOP-62
[16] = tested on: HL-60
[17] = tested on: COLO 205
[18] = tested on: NCI-H460
[19] = tested on: SK-MEL-5
[20] = tested on: NCI-H23
[21] = tested on: SN12C
[22] = tested on: HOP-92
[23] = tested on: DMS-273
[24] = tested on: UACC-257
[25] = tested on: M19-MEL
[26] = tested on: XF498
[27] = tested on: SK-OV-3
[28] = tested on: LXFL 529
[29] = tested on: Malme-3M
[30] = tested on: CCRF-CEM
[31] = tested on: DLD-1
[32] = tested on: IGROV-1
[33] = tested on: HT-29
[34] = tested on: SNB-19
[35] = tested on: RPMI-8226
[36] = tested on: KM-20L2
[37] = tested on: UO-31
[38] = tested on: HCT-116
[39] = tested on: CAKI-1
[40] = tested on: NCI-H226
[41] = tested on: TK-10
[42] = tested on: M14
[43] = tested on: KM12
[44] = tested on: DMS-114
[45] = tested on: SNB-78
[46] = tested on: RXF 631
[47] = tested on: LOX IMVI
[48] = tested on: K562
[49] = tested on: RXF 393
[50] = tested on: U-251
[51] = tested on: OVCAR-8
[52] = tested on: SW-620
[53] = tested on: SF-268
[54] = tested on: OVCAR-3
[55] = tested on: SNB-75

Measured: GI50

CCOC(=O)C1N(S(=O)(=O)c2ccc(C)cc2)CCC12C(c1ccc(OC)c(OC)c1)=Nc1ccccc12 (stereo not given)
inactive: [1] > 100 µM | [2] > 100 µM | [3] > 100 µM | [4] > 100 µM | [5] > 100 µM | [6] > 100 µM | [7] > 100 µM | [8] > 100 µM | [9] > 100 µM | [10] > 100 µM | [11] > 100 µM | [12] > 100 µM | [13] > 100 µM | [14] > 100 µM | [15] > 100 µM | [16] > 100 µM | [17] > 100 µM | [18] > 100 µM | [19] > 100 µM | [20] > 100 µM | [21] > 100 µM | [22] 28.5 µM | [23] > 100 µM | [24] > 100 µM | [25] > 100 µM | [26] 30.1 µM | [27] > 100 µM | [28] > 100 µM | [29] > 100 µM | [30] > 100 µM | [31] > 100 µM | [32] > 100 µM | [33] > 100 µM | [34] > 100 µM | [35] > 100 µM | [36] > 100 µM | [37] > 100 µM | [38] > 100 µM | [39] > 100 µM | [40] > 100 µM | [41] > 100 µM | [42] > 100 µM | [43] > 100 µM | [44] > 100 µM | [45] > 100 µM | [46] > 100 µM | [47] > 100 µM | [48] > 100 µM | [49] 49.3 µM | [50] > 100 µM | [51] > 100 µM | [52] > 100 µM | [53] 47.8 µM | [54] > 100 µM | [55] 35.5 µM
